# Measured values as given in US11578079B2, “SUMO inhibitor compounds and uses thereof” (CITY OF HOPE, priority 2018, dated 2023).
# Tests used:
# SUMO = target: T1, SUMO (Homo sapiens, UniProt Q9UBT2); assay: SUMO activity (Table I, biological activities); type: biochemical; design: key: + (less active); ++ (active); +++ (most active)
# T1 sequence (Q9UBT2 1-640): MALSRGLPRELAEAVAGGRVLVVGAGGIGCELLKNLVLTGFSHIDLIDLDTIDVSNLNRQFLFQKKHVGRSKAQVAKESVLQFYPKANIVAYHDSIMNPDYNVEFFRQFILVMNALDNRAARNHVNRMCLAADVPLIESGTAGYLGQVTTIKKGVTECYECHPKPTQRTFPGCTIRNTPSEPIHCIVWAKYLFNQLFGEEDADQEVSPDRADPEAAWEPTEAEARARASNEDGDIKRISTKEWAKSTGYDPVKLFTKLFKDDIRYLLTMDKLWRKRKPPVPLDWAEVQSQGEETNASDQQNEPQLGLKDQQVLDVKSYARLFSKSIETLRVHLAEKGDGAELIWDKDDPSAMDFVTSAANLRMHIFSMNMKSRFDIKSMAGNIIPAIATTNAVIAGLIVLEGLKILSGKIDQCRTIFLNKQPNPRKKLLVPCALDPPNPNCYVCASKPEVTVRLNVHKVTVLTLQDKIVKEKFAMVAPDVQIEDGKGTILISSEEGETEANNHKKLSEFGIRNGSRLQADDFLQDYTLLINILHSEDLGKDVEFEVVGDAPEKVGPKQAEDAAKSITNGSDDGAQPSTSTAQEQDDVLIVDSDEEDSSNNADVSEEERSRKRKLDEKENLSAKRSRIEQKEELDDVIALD
# T1 sequence (Q9UBE0 1-346 partner): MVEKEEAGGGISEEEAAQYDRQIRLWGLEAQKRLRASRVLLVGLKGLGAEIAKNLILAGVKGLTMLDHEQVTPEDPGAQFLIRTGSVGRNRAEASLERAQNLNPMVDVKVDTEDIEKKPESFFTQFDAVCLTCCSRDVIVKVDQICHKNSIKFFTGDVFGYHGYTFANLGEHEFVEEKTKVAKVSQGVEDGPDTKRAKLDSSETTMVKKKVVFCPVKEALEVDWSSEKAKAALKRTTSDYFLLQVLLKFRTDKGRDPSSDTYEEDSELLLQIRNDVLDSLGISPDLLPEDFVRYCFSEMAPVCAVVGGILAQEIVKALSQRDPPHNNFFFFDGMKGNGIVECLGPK
# c-Myc = c-Myc activity (Table I, biological activities); design: key: + (less active); ++ (active); +++ (most active)
SUMO (SUMO),SMILES,c-Myc (c-Myc)
+,CC(=O)C1=CC2(C(Cc3ccccc3)Nc3ccccc3)C=CC1(C)O2 (stereo not shown) [Compound 527],+
++,CCN(CC)CCNC(=O)C1=C(C(=O)OC)C2(C(Cc3ccccc3F)Nc3cc(F)cc(F)c3)C=CC1O2 (stereo not shown) [Compound 456],++
++,COC(=O)C1=C(C(=O)NC2CCN(Cc3ccccc3)CC2)C2C=CC1(C(Cc1ccccc1)Nc1ccccc1)O2 (stereo not shown) [Compound 288],++
++,COC(=O)C1=C(C(=O)NC2CCN(C)CC2)C2C=CC1(C(Cc1ccccc1)Nc1cc(F)cc(F)c1)O2 (stereo not shown) [Compound 240],+
++,CCOC(=O)C1=C(C(=O)Nc2c(C)cccc2CC)C2C=CC1(C(Nc1ccccc1)c1ccc(CN3CCOCC3)cc1)O2 (stereo not shown) [Compound 617],++
++,COC(=O)C1=C(C(=O)OC)C2(C(Nc3ccccc3)C3CCC3)C=CC1O2 (stereo not shown) [Compound 184],+
++,CCOC(=O)C1=C(C(=O)Nc2ccc(Cl)cc2)C2C=CC1(C(Nc1ccccc1)c1ccc(CN3CCOCC3)cc1)O2 (stereo not shown) [Compound 606],+
++,COC(=O)C1=C(C(=O)OC)C2(C(Cc3ccccc3)Oc3ccccc3)OC1C1OC12 (stereo not shown) [Compound 515],+
+,CCOC(=O)C1=C(C(=O)Nc2ccc(C)c(F)c2)C2C=CC1(C(Oc1ccc(F)cc1)c1ccc(CN3CCOCC3)cc1)O2 (stereo not shown) [Compound 486],++
++,COC(=O)C1=C(C(=O)OC)C2(C(Cc3ccccc3)Nc3cc(F)cc(F)c3)C=CC1O2 (stereo not shown) [Compound 167],+
++,CCOC(=O)C1=C(C(=O)Nc2ccc(F)cc2)C2C=CC1(C(Nc1ccccc1)c1ccc(CN3CCOCC3)cc1)O2 (stereo not shown) [Compound 601],+
++,CCN(CC)CCNC(=O)C1=C(C(=O)OC)C2(C(Cc3ccccc3)Nc3cccc(F)c3)C=CC1O2 (stereo not shown) [Compound 421],++
++,COC(=O)C1=C(C(=O)NC2CCN(C(=O)c3ccsc3)CC2)C2C=CC1(C(Cc1ccccc1)Nc1ccccc1)O2 (stereo not shown) [Compound 383],+
++,C#Cc1ccc(NC(=O)C2=C(C(=O)OCC)C3(C(Nc4ccccc4)c4ccc(CN5CCOCC5)cc4)C=CC2O3)cc1 (stereo not shown) [Compound 577],++
++,COC(=O)C1=C(C(=O)OC)C2(C(Nc3ccccc3)c3ccccc3)C=CC1O2 (stereo not shown) [Compound 165],+
+,COC(=O)C1=C(C(=O)O)C2(C(Cc3ccccc3)Nc3cc(F)cc(F)c3)C=CC1O2 (stereo not shown) [Compound 310],+
++,COC(=O)C1=C(C(=O)NC2CCN(C)CC2)C2C=CC1(C(Cc1ccccc1)Nc1ccccc1F)O2 (stereo not shown) [Compound 272],+
+,COC(=O)C1=C(C(=O)N(C)CCN(C)C)C2C=CC1(C(Cc1ccccc1)Nc1ccccc1)O2 (stereo not shown) [Compound 388],+
+,CCOC(=O)C1=C(C(=O)N(C)C)C2C=CC1(C(Nc1ccccc1)c1ccc(CN3CCOCC3)cc1)O2 (stereo not shown) [Compound 590],+
++,COC(=O)C1=C(C(=O)NCCCN(C)C)C2C=CC1(C(Cc1ccccc1)Nc1ccccc1)O2 (stereo not shown) [Compound 389],+
++,COC(=O)C1=C(C(=O)NCCN(C)C(=O)OC(C)(C)C)C2C=CC1(C(Cc1ccccc1)Nc1ccccc1)O2 (stereo not shown) [Compound 419],+
++,COC(=O)C1=C(C(=O)NCCN(C)C)C2C=CC1(C(Cc1ccc(Cl)cc1)Nc1cc(F)cc(F)c1)O2 (stereo not shown) [Compound 426],++
++,COC(=O)C1=C(C(=O)Nc2cccnc2)C2C=CC1(C(Cc1ccccc1)Nc1cc(F)cc(F)c1)O2 (stereo not shown) [Compound 241],++
+,COC(=O)C1=C(C(=O)NC2CCN(S(=O)(=O)c3ccccc3)CC2)C2C=CC1(C(Cc1ccccc1)Nc1ccccc1)O2 (stereo not shown) [Compound 358],+

SUMO (SUMO),SMILES,c-Myc (c-Myc)
++,COC(=O)C1=C(C(=O)Nc2ccc(CN3CCOCC3)cc2)C2C=CC1(C(Cc1ccccc1)Nc1ccccc1)O2 (stereo not shown) [Compound 507],+
++,CCOC(=O)C1=C(C(=O)OCC)C2(C(Cc3ccc(F)cc3)Nc3ccccc3)C=CC1O2 (stereo not shown) [Compound 446],+
++,COC(=O)C1=C(C(=O)OC2CCN(C)CC2)C2C=CC1(C(Cc1ccccc1)Nc1ccccc1)O2 (stereo not shown) [Compound 286],
++,COC(=O)C1=C(C(=O)OC)C2(C(Cc3cccc4ccccc34)Nc3ccccc3)C=CC1O2 (stereo not shown) [Compound 635],
+++,COC(=O)C1=C(C(=O)OC)C2(C(Cc3ccc(Cl)cc3Cl)Nc3ccccc3)C=CC1O2 (stereo not shown) [Compound 641],
++,CCc1ccc(CC(Nc2ccccc2)C23C=CC(O2)C(C(=O)OC)=C3C(=O)OC)cc1 (stereo not shown) [Compound 655],
++,CNC(=O)Cc1ccc(CC(Nc2ccccc2)C23C=CC(O2)C(C(=O)OC)=C3C(=O)OC)cc1 (stereo not shown) [Compound 665],
+++,COC(=O)C1=C(C(=O)OC)C2(C(Cc3ccccc3F)Nc3cc(F)cc(F)c3)C=CC1O2 (stereo not shown) [Compound 454],
++,COC(=O)C1=C(C(N)=O)C2(C)C=CC1(C(Cc1ccccc1)Nc1ccccc1)O2 (stereo not shown) [Compound 294],
++,CCOC(=O)C1=C(C(=O)OCC)C2(C(Nc3ccccc3)c3ccc(CN4CCOCC4)cc3)C=CC1O2 (stereo not shown) [Compound 659],
+,COC(=O)C1=C(C(=O)OC)C2(C(Cc3ccccc3Cl)Oc3ccccc3)C=CC1O2 (stereo not shown) [Compound 687],
++,COC(=O)C1=C(C(=O)OC)C2(C(Cc3ccccc3)Nc3ccccc3)CC(O)C1O2 (stereo not shown) [Compound 302],
++,COC(=O)C1=C(C(=O)OC)C2(C(Cc3ccccc3)Oc3ccccc3)C=CC1O2 (stereo not shown) [Compound 271],
+,O=C(O)C1=C(C(=O)Nc2ccccc2)C2C=CC1(C(Cc1ccccc1)Nc1ccccc1)O2 (stereo not shown) [Compound 174],
+,CCCCC(Nc1cc(F)cc(F)c1)C12C=CC(O1)C(C(=O)NCCN(CC)CC)=C2C(=O)OC (stereo not shown) [Compound 398],
+,COc1ccc(NC(=O)C2=C(C(=O)O)C3(C(Cc4ccccc4)Nc4ccccc4)C=CC2O3)cc1 (stereo not shown) [Compound 175],
+++,COC(=O)C1=C(C(=O)OC)C2(C(Cc3cccc(OC)c3)Nc3ccccc3)C=CC1O2 (stereo not shown) [Compound 636],
+,COC(=O)C1=C(C(=O)Nc2ccc(C)c(F)c2)C2C=CC1(C(Cc1ccccc1)Oc1cccnc1)O2 (stereo not shown) [Compound 484],
++,COC(=O)C1=C(C(=O)OC)C2(C(Cc3ccc(OC(F)(F)F)cc3)Nc3ccccc3)C=CC1O2 (stereo not shown) [Compound 647],
++,COC(=O)C1=C(C(=O)OC)C2(C(Cc3ccc(CC4CCOCC4)cc3)Nc3ccccc3)C=CC1O2 (stereo not shown) [Compound 676],
++,COC(=O)C1=C(C(=O)Nc2ccc(Oc3ccccc3)cc2)C2C=CC1(C(Cc1ccccc1)Nc1ccccc1)O2 (stereo not shown) [Compound 296],
++,COC(=O)C1=C(C(=O)OC)C2(C(Cc3ccccc3)Nc3ccccc3)C=CC1(C)O2 (stereo not shown) [Compound 259],
++,CNc1ccc(CC(Nc2ccccc2)C23C=CC(O2)C(C(=O)OC)=C3C(=O)OC)cc1 (stereo not shown) [Compound 685],
